Results: publication PMC11862924, “Phenylpyrazoles as Inhibitors of the m^6A RNA-Binding Protein YTHDF2” (JACS Au, 2025)

What was measured:
YTHDF2 YTH domain = target: T1, YTHDF2 YTH domain (Homo sapiens, UniProt Q9Y5A9); test: AlphaScreen assay
T1 sequence (Q9Y5A9 383-553): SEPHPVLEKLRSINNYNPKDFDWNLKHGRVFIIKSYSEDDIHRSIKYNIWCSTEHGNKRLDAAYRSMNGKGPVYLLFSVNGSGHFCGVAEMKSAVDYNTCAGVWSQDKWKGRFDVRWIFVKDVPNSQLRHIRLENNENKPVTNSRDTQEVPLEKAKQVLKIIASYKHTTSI
Protocol: Initially, the YTHDF2 YTH domain at different concentrations (0–2500 nM) was incubated with varied concentrations of RNA probes (5’-Bi-CGAm6ACUGUC–3′, IDT company) (5, 25, 50, and 100 nM) in 25 mM Hepes (pH 7.5), 100 mM NaCl, and 0.1% BSA to probe the optimal ratio between protein and RNA before the detection signal reached saturation. The AlphaScreen Histidine Detection Kit (Nickel Chelate) (PerkinElmer) 6760619 M and white 384-well Optiplates (PerkinElmer) were used. Anti-His receptor beads (PerkinElmer) (final concentration: 20 μg/mL) and streptavidin donor beads (final concentration: 20 μg/mL) were first added. The reaction mixture was then incubated at room temperature in a dark environment for 1 h to reach equilibrium. The optical signal was detected using a Tecan plate reader.
The inhibitory activities of the phenylpyrazoles (at 100 µM) against YTHDF2 binders
in the amplified luminescent proximity homogeneous assay (AlphaScreen).
phenylpyrazoles featuring a 2 -hydroxybenzoyl moiety R1 (blue) and a 4 -carboxyphenyl moiety
represent average values ± s.d.

K562 = test: CCK-8 proliferation assay, K562; assay type: cell-based; details: Homo sapiens, CCK-8 kit assay, triplicates, 72 h, read-out: Anti-proliferation activity against cancer cells (IC50), K562
Protocol: The JAR, K562, HCT116, and MOLM13 cells were seeded in 96-well plates (3000 cells/well). After being cultured overnight, compounds were added together with the DMSO treatment (0.1%) as a control. After 72 h, CCK-8 solution (Vazyme, A311) was added, and the cells were incubated at 37 °C for 4 h. The absorbance was measured at 450 nm using a plate reader (TECAN Spark).

JAR cells = test: Colony formation assay; assay type: cell-based, human; details: n = 3 biological replicates
Protocol: JAR cells in the growth phase are prepared into cell suspensions by traditional digestion. A cell suspension (2 mL) with 200 cells per dish was seeded into a 6-well plate and incubated for 7 days. When visible colonies are present in the 6-well plate, the medium is discarded. The colonies are carefully soaked twice in PBS and dried in air. Cells were fixed with a 4% paraformaldehyde solution for 15 min. The paraformaldehyde solution was discarded, and Giemsa was used to stain the cells for 10 min. The dye solution was slowly washed away with Milli-Q water and then dried in air. The colony number and type were assessed manually under a microscope.

K562 cells [1] = test: Cell cycle analysis by flow cytometry; assay type: cell-based, human; details: 24 h
Protocol: K562 cells were seeded in 6-well plates (1.0 × 10^6 cells/well) and incubated overnight. Compounds of different concentrations were added to the 6-well plates. The cell cycle analysis kit (SIGMA-Aldrich, MAK344) was used after incubation for 24 h. The cells were detached with trypsin and washed with 2 mL of ice-cold cell cycle assay buffer for each sample. The supernatant was removed after centrifugation. The cells were fixed by adding 2 mL of ice-cold 70% ethanol (added dropwise while vortexing) to the cell pellet and then placed on ice for 30 min. The supernatant was removed after centrifuging at 400 × g for 5 min. Cells were washed with a cell cycle assay buffer (2 mL). Cells were resuspended completely in 500 μL of staining solution and were protected from light exposure. After being incubated at room temperature for 30 min, each sample was analyzed by flow cytometry (Sony Biotechnology Cell Sorter SH800S) with proper machine settings. The data were analyzed by cell sorter software (Sony Biotechnology).

K562 cells [2] = test: Apoptosis assay (Annexin V/PI flow cytometry); assay type: cell-based, human; details: 24 h
Protocol: (§1) K562 cells were seeded in six-well plates (1.0 × 10^6 cells/well) and incubated overnight. Compounds of different concentrations were added to the 6-well plates. After incubation for 24 h, the cells were detached with trypsin, washed twice with PBS and cold BioLegend’s cell staining buffer, and then, 5 μL of FITC Annexin V and 10 μL of propidium iodide solution were added. The cells were gently vortexed and incubated in a dark environment for 15 min at room temperature (25 °C). After adding 400 μL of Annexin V binding buffer to each tube, each sample was analyzed by flow cytometry (Sony Biotechnology Cell Sorter SH800S) with proper machine settings, and the data were analyzed by cell sorter software (Sony Biotechnology).

[3] = Apoptosis assay (Annexin V/PI flow cytometry); assay type: cell-based, human; details: human, K562 cells, read-out: Q3: viable
Protocol: as §1

| Compound | inhibition at 100 μM in AlphaScreen (YTHDF2 YTH domain; 100 μM compound) [%] | inhibitory IC50 in AlphaScreen (in words) (YTHDF2 YTH domain; Figures S3 and S4) | IC50 (K562) [µM] | colony formation (in words) (JAR cells) | cells in the G0/G1 phase (K562 cells [1]; 25 μM) [%] | cell cycle arrest (in words) (K562 cells [1]) | total apoptosis (Q2 + Q4) (K562 cells [2]; 25 μM) [%] | total apoptosis (Q2 + Q4) (K562 cells [2]; 50 μM) [%] | total apoptosis (Q2 + Q4) (K562 cells [2]; 100 μM) [%] | viability at 24 h, 25 µM ([3]; 25 μM) [%] | viability at 24 h, 50 µM ([3]; 50 μM) [%] | viability at 24 h, 100 µM ([3]; 100 μM) [%] |
| --- | --- | --- | --- | --- | --- | --- | --- | --- | --- | --- | --- | --- |
| O=C(O)c1ccc(-n2cc(C(=O)c3cc(Cl)cc(Cl)c3O)cn2)cc1 [CK-61] | > 80 | low double-digit micromolar | > 50 |  |  |  |  |  |  |  |  |  |
| O=C(O)c1ccc(-n2cc(C(=O)c3c(O)ccc4ccccc34)cn2)cc1 [CK-75] |  |  |  | concentration-dependently inhibited the colony formation | > 70 | induced cell cycle arrest in the G0/G1 phase concentration-dependently | 28.3 | 34.9 | 45.4 | 71.6 | 65.1 | 54.5 |
| Cc1cc(O)c(C(=O)c2cnn(-c3ccc(C(=O)O)cc3)c2)cc1Cl [CK-79] |  |  | 28.1 ± 1.6 |  |  |  |  |  |  |  |  |  |
